Several values for one entry are separate records, joined by “and”; a condition that tells them apart may be missing. Equal entries are not always repeated.
Experiments:
[1] = tested on: Panc-1 human pancreas tumors; test: Panc-1 mouse xenograft tumor growth (Example 1); format: in vivo; details: for tumor growth inhibition: Panc-1 xenograft in female nude mice, FK228 IV Q4Dx3, gemcitabine IP Q3Dx4, vs vehicle control
Description: In this study, female nude mice were implanted subcutaneously (SC) by trocar with Panc-1 tumor fragments harvested from SC growing tumors in nude mice hosts. […] The day of treatment initiation was specified as Day 1. Vehicle control and FK228 were administered intravenously on a Q4Dx3 schedule (Days 1, 5, and 9). Gemcitabine was administered by an intraperitoneal injection on a Q3Dx4 schedule (Days 1, 4, 7, 10). Tumors were measured by Vernier calipers twice weekly.

[2] = tested on: acetylated histone 3; test: Immunoblot of acetylated histone 3 in PANC-1 xenograft tumors; format: in vivo, human; details: FK228 5 mg/kg Q4Dx3; gemcitabine 80 mg/kg Q3Dx4; tumors at study completion; vs controls
Description: Abstract: To examine activity and mechanism of FK228, antitumor efficacy was tested in PANC-1 pancreatic adenocarcinoma model representing transformed Ras, either as a single agent or in combination with gemcitabine. Following PANC-1 study completion, tumor and sera were obtained from: • the vehicle control; • FK228 dosed at 5 mg/kg once every four days for three treatments (Q4Dx3); • Gemcitabine at 80 mg/kg (Q3Dx4); and • the drug combination. Expression of c-Myc, acetylated histones 3 and 4, and p21^waf1 was compared between control and FK228 groups by immunoblotting and was quantified following actin normalization. Serum levels of putative tumor products b-FGF and MMP-2 were quantified by human-specific ELISA. […]
Tissue Biomarkers: Tumor levels of acetylated histone-4, histone-4, c-Myc, p21waf and β-actin were quantified by immunoblotting as described. […] The chemiluminescence signal was captured by autoradiography, quantified by densitometry and expressed as a ratio of actin in each sample lane. For each biomarker, means and standard errors were calculated in each treatment group. […]
Expression of c-Myc, acetylated histones 3 and 4, and p21^waf1 was compared between control and FK228 groups by immunoblotting and was quantified following actin normalization. Serum levels of putative tumor products b-FGF and MMP-2 were quantified by human-specific ELISA. […]

[3] = tested on: PANC-1 Human Pancreatic Tumor Xenograft; test: PANC-1 xenograft tumor growth inhibition study (Example 3); format: in vivo, mouse xenograft; details: for % TGI: PANC-1, Day 25; for activity according to NCI Standards / #PR/CR / FINAL TUMOR VOLUME (DAY 25) MEAN ± SEM / calculated TGI values (discussion) / % TR: PANC-1; for calculated TGI values (discussion): all evaluated doses and schedules
From the text: (Madison, Wis.). […] Tumor measurements were converted to cubic millimeter tumor volume using the formula^(5): […] Final mean tumor volume ±SEM for each group was reported; animals experiencing partial or complete tumor regressions or animals experiencing technical or drug-related deaths were censored from these calculations. […] TGI values for each treatment group are reported at study completion; these calculations are based on the final study day. […] If partial tumor regression was reported in multiple animals within one group, a mean value was determined. Individual mice lacking palpable tumors were classified as undergoing complete regression (CR). Animals experiencing partial or complete tumor regressions were censored from TGI calculations. However, data from these animals was included in statistical analysis calculations. In addition, weight data from these animals was included in daily and final group calculations. Tumor Necrosis-Degree of tumor necrosis was rated at each tumor measurement using the following arbitrary index: [table]

[4] = FK228 2.5 mg/kg IV Q4Dx3, 2.5 mg/kg
[5] = FK228 5 mg/kg IV Q4Dx3, 5 mg/kg

`C/C=C1\NC(=O)[C@H]2CSSCC/C=C/[C@H](CC(=O)N[C@H](C(C)C)C(=O)N2)OC(=O)[C@H](C(C)C)NC1=O` [FK228, romidepsin] was tested, and the tumor growth inhibition [1] was 26%, the “acetylation of histone 3” value [2] was “not affected” and the “% TGI” value ([3]; FK228 2.5 mg/kg IV Q4Dx3) was 26%. For the same compound, the “% TGI” value ([3]; FK228 5 mg/kg IV Q4Dx3) was 26%, the “activity according to NCI Standards” value ([3]; FK228 2.5 mg/kg IV Q4Dx3) was “inactive” and the “#PR/CR” value [3, 4] was 0/9 and 0/0. For the same compound, the “FINAL TUMOR VOLUME (DAY 25) MEAN ± SEM” value [3, 4] was 1688±290 mm^3, the “activity according to NCI Standards” value ([3]; FK228 5 mg/kg IV Q4Dx3) was “inactive” and the “#PR/CR” value [3, 5] was 0/9 and 0/0. The “FINAL TUMOR VOLUME (DAY 25) MEAN ± SEM” value [3, 5] was 1690±290 mm^3 and 1690 ± 331 mm^3, the “calculated TGI values (discussion)” value [3] was “less than 58%” and the “single agent activity towards tumor model” value ([3]; ras-transformed PANC-1) was “some activity”.

For `Nc1ccn([C@@H]2O[C@H](CO)[C@@H](O)C2(F)F)c(=O)n1` [Gemcitabine, gemcitabine], the tumor growth inhibition [1] was 50%, the “animals with tumor regression” value ([1]; Panc-1 xenograft, N=9 mice per group) was “no regression” and the “acetylation of histone 3” value [2] was “significantly inhibited”. The “% TGI” value ([3]; Gemcitabine 40 mg/kg IP Q3Dx4) was 31%, the “% TGI” value ([3]; Gemcitabine 80 mg/kg IP Q3Dx4) was 51% and the “#PR/CR” value ([3]; Gemcitabine 40 mg/kg IP Q3Dx4) was 1/9 and 1/0. For the same compound, the “% TR” value ([3]; Gemcitabine 40 mg/kg IP Q3Dx4) was 62%, the “FINAL TUMOR VOLUME (DAY 25) MEAN ± SEM” value ([3]; Gemcitabine 40 mg/kg IP Q3Dx4) was 1566±255 mm^3 and the “activity according to NCI Standards” value ([3]; Gemcitabine 40 mg/kg IP Q3Dx4) was “inactive”. The “% TR” value ([3]; Gemcitabine 40 mg/kg IP Q3Dx4, listed as gemcitabine) was 62%, the “#PR/CR” value ([3]; Gemcitabine 80 mg/kg IP Q3Dx4) was 0/9 and 0/0 and the “FINAL TUMOR VOLUME (DAY 25) MEAN ± SEM” value ([3]; Gemcitabine 80 mg/kg IP Q3Dx4) was 1172±234 mm^3. The “activity according to NCI Standards” value ([3]; Gemcitabine 80 mg/kg IP Q3Dx4) was “inactive” and the “calculated TGI values (discussion)” value [3] was “less than 58%”.

Reference: patent US20100137239A1, “GEMCITABINE COMBINATION THERAPY” (GLOUCESTER PHARMACEUTICALS, priority 2006, published 2010)
